Reference: patent US20180303878A1, “TREATMENT FOR INFECTION COMPOSED OF MENSTRUAL STEM CELLS” (CELLS FOR CELLS, S.P.A., priority 2015, published 2018)

How the values were obtained:
Format in all cases: in vivo, C57BL6/j mice
CLP-induced sepsis [1] = experiment: Survival in polymicrobial CLP-induced sepsis (Kaplan-Meier); conditions: 96 hours after treatment; treatment 3 hours after CLP; MenSCs 7.5×10^5 cells/mice intra-peritoneal, Enrofloxacin 5 mg/kg
Protocol: (§1) In vivo studies were performed at the Universidad de los Andes-Cells for Cells Animal Facility (Santiago, Chile) in accordance with the institutional guidelines for the care and use of laboratory animals in research, revised and approved by the Institutional Ethical Committee for animal experimentation. C57BL6/j mice (8 to 12 weeks old; Jackson Laboratories, Bar Harbor, Me., USA) received ad libitum access to food and water during the whole experimental procedure. CLP-induced sepsis was performed as described previously (Rittirsch D et al., Immunodesign of experimental sepsis by cecal ligation and puncture. Nat Protoc. 2009) with some modifications. Briefly, mice were anesthetized with inhaled Sevofluorane (Baxter, Guayama, Puerto Rico) by using an anesthetic vaporizer. […]
(§2) Three hours after CLP-induced sepsis, mice were randomized and distributed into different experimental groups to receive single injections of saline (vehicle) (n=16), antibiotics (AB) (n=22), MenSCs (n=21), MenSCs+AB (n=22), MenSC CM (n=16), or MenSC CM+AB (n=22). […] For Kaplan-Meier survival curves, animals were assessed after CLP-induced sepsis every 12 hours for 4 days. […]
Data are expressed as mean±standard error. […]

CLP-induced sepsis [2] = experiment: Blood biochemical analysis in CLP mice; conditions: serum 24 hours post-surgery; sham 47.67±3.18, saline 90±21.47
Protocol: as §1, with “modifications.” for “modifications. Briefly, mice were anesthetized with inhaled Sevofluorane (Baxter, Guayama, Puerto Rico) by using an anesthetic vaporizer.”
as §2
Plasma levels of blood urea nitrogen (BUN), bilirubin, alanine aminotransferase (ALT), aspartate aminotransferase (AST), alkaline phosphatase (ALP), albumin, amylase, and glucose were evaluated by using the Piccolo Xpress™ Chemistry Analyzer (Abaxis, Union City, Calif., USA) in accordance with the instructions of the manufacturer. […]

CLP-induced sepsis [3] = experiment: Cytokine multiplex array evaluation in CLP mice; conditions: 40 hours post-CLP, P≤0.05
Protocol: as §1
The levels of inflammatory cytokines-monocyte chemoattractant protein-1 (MCP-1), TNF-α, IL-6, and […]—in CLP mice serum samples were determined by using a commercial BD™ Cytometric Bead Array Mouse Inflammation Kit (BD Biosciences Pharmingen, San Diego, Calif., USA) in accordance with the instructions of the manufacturer. Analysis was carried out by flow cytometry, and the concentration (in picograms per milliliter) was determined by using FCAP Array software (BD Biosciences). The parameters were determined 24 and 40 hours after CLP surgery.

CLP-induced sepsis [4] = experiment: Bacterial numbers in blood, peritoneal cavity and spleen in CLP-induced sepsis; conditions: 24 hours post-CLP, in comparison with saline group, P≤0.05
Protocol: as §1, with “vaporizer. After a 1-cm incision was performed, the cecum was exposed and ligated in the middle portion with 5-0 dafilon suture (Braun, Rubi, Spain), punctured once with an 18-gauge needle (in order to induce high-grade sepsis), and returned to the peritoneal cavity. The abdominal incision was sutured with catgut 5-0 (Braun, Bogota, Colombia), and the skin was closed with Histoacryl (Braun).” for “vaporizer.”
Total blood, peritoneal fluid, and homogenized spleen in sterile saline were plated in a 10-fold dilution on blood agar plates and incubated at 37° C. overnight, and the number of CFUs was determined.

CCN1CCN(c2cc3c(cc2F)c(=O)c(C(=O)O)cn3C2CC2)CC1 [AB, Enrofloxacin] was tested, and the survival rate (CLP-induced sepsis [1]) was 73%, the “alkaline phosphatase (ALP) concentration” value (CLP-induced sepsis [2]) was 74.25±12.03 U/l and the IL-6 serum levels (CLP-induced sepsis [3]; in comparison with saline group) was “decreased”. For the same compound, the “levels of IL-10” value (CLP-induced sepsis [3]; in comparison with untreated mice) was “reduction” and the “CFU counts in peritoneal lavage” value (CLP-induced sepsis [4]) was “decreased”.
